According to article PMC6478909 (Scientific Reports, 2019):
Where two headings read alike, the source gives them in different places.

Assays:
[1] = target: T1, precorrin-4 C(11)-methyltransferase (CobM), Cp-CobM (Corynebacterium pseudotuberculosis, UniProt D9QAC4); assay: biochemical; format: binding
[2] = target: T1, precorrin-4 C(11)-methyltransferase (CobM), Cp-CobM; assay: biochemical; format: binding; remark: listed apart in the source

T1 sequence (D9QAC4 1-257): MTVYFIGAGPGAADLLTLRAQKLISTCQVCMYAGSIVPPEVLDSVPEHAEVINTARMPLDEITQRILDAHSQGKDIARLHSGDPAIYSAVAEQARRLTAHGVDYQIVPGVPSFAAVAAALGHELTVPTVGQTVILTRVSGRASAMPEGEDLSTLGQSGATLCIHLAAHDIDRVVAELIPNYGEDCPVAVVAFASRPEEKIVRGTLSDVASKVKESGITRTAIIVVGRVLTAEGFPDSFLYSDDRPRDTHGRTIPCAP

Row | Compound | Kd [1] [µM] | Kd [2] [µM]
1 | Nc1ncnc2nc[nH]c12 [adenine] | 17.8 ± 1.5 | –
2 | C[S+](CC[C@H](N)C(=O)[O-])C[C@H]1O[C@@H](n2cnc3c(N)ncnc32)[C@H](O)[C@@H]1O (stereo partly shown) [SAM] | – | 1.4 ± 0.7
3 | Cc1ccc(C(=O)Nc2ccc(S(=O)(=O)O)c3cc(S(=O)(=O)O)cc(S(=O)(=O)O)c23)cc1NC(=O)c1cccc(NC(=O)Nc2cccc(C(=O)Nc3cc(C(=O)Nc4ccc(S(=O)(=O)O)c5cc(S(=O)(=O)O)cc(S(=O)(=O)O)c45)ccc3C)c2)c1 [suramin] | – | 6.3 ± 1.1
4 | Nc1ncnc2c1ncn2[C@H]1C[C@H](O)[C@@H](COP(=O)(O)OP(=O)(O)OP(=O)(O)O)O1 [dATP] | 15.8 ± 2 | –
